We go through 41 substances from patent US20120214862A1, “MODULATION OF FACTOR 7 EXPRESSION” (ISIS Pharmaceuticals, Inc., priority 2009, published 2012).

In the oligonucleotide strings, read from the 5' end, every base follows the letter of its sugar. An asterisk marks phosphorothioate; unmarked linkages are phosphodiester. Other units and linkages are bracketed, terminal groups are in braces. A string of capitals states the bases alone. e = 2'-O-(2-methoxyethyl) (MOE); [5mC] = 5-methylcytosine; d = 2'-deoxy (DNA)

The first data set concerns human Factor 7 mRNA. As to the kind of experiment: Antisense inhibition of human Factor 7 mRNA in HepB3 cells, lipofectin, 50 nM, real-time RT-PCR. The class given is cell-based. The following applies: Example 1; HepB3 cells, lipofectin, 50 nM, ~24 h, relative to untreated control cells. A digest of the protocol: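 HepB3 cells were transfected by lipofectin with 50 nM antisense oligonucleotide and harvested after about 24 h. Factor 7 mRNA was measured by real-time RT-PCR (primer probe set RTS 2927 in some runs), normalized to RIBOGREEN total RNA, and reported as percent inhibition versus untreated control.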
As to “407894 (antisense eG*eT*eT*e[5mC]*e[5mC]*dG*dG*d[5mC]*d[5mC]*d[5mC]*dT*d[5mC]*dG*dA*dA*eG*eG*e[5mC]*eA*eG) [compound 407894]”, the “% Inhibition (human Factor 7 mRNA)” value is 77%.
The same measure, in the same setting: the result for “407890 (antisense e[5mC]*eA*eG*eG*eG*dA*dG*d[5mC]*d[5mC]*d[5mC]*dG*dG*d[5mC]*d[5mC]*dG*e[5mC]*eA*eG*e[5mC]*eT) [compound 407890]” reads 60%; that for “407902 (antisense e[5mC]*eA*e[5mC]*e[5mC]*e[5mC]*dA*dG*dA*dT*dG*dG*dT*dG*dT*dT*eG*eA*eT*e[5mC]*eA) [compound 407902]”, 86%; that for “407625 (antisense eT*eT*eG*eT*e[5mC]*dG*dA*dA*dA*d[5mC]*dA*dG*dT*dG*dG*eG*e[5mC]*e[5mC]*eG*e[5mC]) [compound 407625]”, 100%.
Turning to “407906 (antisense eA*e[5mC]*e[5mC]*eA*e[5mC]*dG*dG*dG*d[5mC]*dT*dG*dG*dT*dG*d[5mC]*eA*eG*eG*e[5mC]*eG) [compound 407906]”, the “% Inhibition (human Factor 7 mRNA)” value worked out at 4%.
Same read-out and setting: for “407909 (antisense e[5mC]*e[5mC]*eA*eT*e[5mC]*d[5mC]*dG*dA*dG*dT*dA*dG*d[5mC]*d[5mC]*dG*eG*e[5mC]*eA*e[5mC]*eA) [compound 407909]” the value was 77%; for “407653 (antisense eA*eA*eT*eA*eT*d[5mC]*dA*dT*dT*dG*dA*d[5mC]*dA*dA*dG*eG*eG*e[5mC]*eT*eG) [compound 407653]”, 21%.
With “407664 (antisense e[5mC]*eA*eG*eG*eG*d[5mC]*dG*dA*dG*dG*d[5mC]*dA*dA*d[5mC]*d[5mC]*e[5mC]*e[5mC]*eG*eT*eG) [compound 407664]”, the “% Inhibition (human Factor 7 mRNA)” value is on record as 70%.
The same measure, in the same setting: the result for “407933 (antisense eT*eG*eA*eT*eA*dA*dT*dG*dG*dA*dT*dA*dA*dG*dA*eA*e[5mC]*e[5mC]*eA*eG) [compound 407933]” reads 58%; that for “407922 (antisense eT*e[5mC]*eG*eA*e[5mC]*dG*d[5mC]*dA*dG*d[5mC]*d[5mC]*dT*dT*dG*dG*e[5mC]*eT*eT*eT*e[5mC]) [compound 407922]”, 82%.
On the same count and under the same terms, for “407655 (antisense eA*eG*eA*eG*eT*dG*d[5mC]*dA*dG*d[5mC]*dT*dT*dG*d[5mC]*d[5mC]*eA*eG*eG*eT*e[5mC]) [compound 407655]” the value was 28%; for “407663 (antisense eT*eT*eG*e[5mC]*eA*dG*dG*d[5mC]*dA*dG*dG*dA*d[5mC]*dT*dG*eG*eT*eG*eG*eT) [compound 407663]”, 44%; for “407963 (antisense eA*eG*eA*eG*e[5mC]*dA*dG*dG*dG*dT*dG*d[5mC]*d[5mC]*dT*dT*eG*eG*eA*eA*eG) [compound 407963]”, 33%.
On the same count and under the same terms, the result for “407954 (antisense e[5mC]*eA*eG*eG*eG*dA*dG*dA*dG*dA*dA*d[5mC]*dA*dT*d[5mC]*e[5mC]*eA*eA*eT*eT) [compound 407954]” reads 39%; that for “407920 (antisense eT*eG*eA*eG*e[5mC]*dG*d[5mC]*dA*dT*dG*dA*dG*d[5mC]*dT*dT*eT*eT*eG*e[5mC]*eA) [compound 407920]”, 65%.

Staying with this data set, now noted: Example 4; HepB3 cells, lipofectin, 50 nM, ~24 h, relative to untreated control.
On to “422271 (antisense e[5mC]*eT*dG*dA*dG*d[5mC]*dG*d[5mC]*dG*dG*dA*dA*dG*dA*dA*eG*eG*eG*eA*e[5mC]) [compound 422271]”, for which the “% Inhibition (human Factor 7 mRNA)” value is on record as 32%.
Still for that read-out and setting: the result for “422186 (antisense eG*eG*eA*dA*dG*dA*dA*dG*dG*dG*dA*d[5mC]*dG*dG*dA*dA*dG*eG*eT*eG) [compound 422186]” reads 14%; that for “422127 (antisense eT*eA*e[5mC]*eT*eG*dA*dG*d[5mC]*dG*d[5mC]*dG*dG*dA*dA*dG*eA*eA*eG*eG*eG) [compound 422127]”, 17%.
The same measure, in the same setting: for “422276 (antisense eG*eG*dT*dT*dA*d[5mC]*dT*dG*dA*dG*d[5mC]*dG*d[5mC]*dG*dG*eA*eA*eG*eA*eA) [compound 422276]” the value was 66%.

Still in this data set, the particulars now being: HepB3 cells, lipofectin, 50 nM antisense oligonucleotide, approximately 24 hours, primer probe set RTS 2927, relative to untreated control.
“416546 (antisense e[5mC]*e[5mC]*eA*eG*eG*d[5mC]*dT*dG*dG*dT*dT*dT*dG*dG*dA*eG*eA*eA*eA*e[5mC]) [compound 416546]”: the “% Inhibition of human Factor 7 mRNA levels” value came out at 21%.
Take “416554 (antisense eA*eA*eA*eG*eA*dT*d[5mC]*d[5mC]*d[5mC]*dA*d[5mC]*d[5mC]*dT*d[5mC]*dA*eA*eA*eG*eA*eG) [compound 416554]”: the “% Inhibition of human Factor 7 mRNA levels” value came to 7%.
The same measure, in the same setting: for “416505 (antisense eG*e[5mC]*eA*eG*eA*dT*dT*dT*dG*d[5mC]*dA*dT*d[5mC]*dA*dG*eA*eA*eA*eA*eG) [compound 416505]” the value was 45%; for “416503 (antisense eT*eA*eG*e[5mC]*e[5mC]*dA*d[5mC]*d[5mC]*d[5mC]*d[5mC]*dG*d[5mC]*dG*dG*dG*e[5mC]*eT*eG*eG*e[5mC]) [compound 416503]”, 0%.
On the same count and under the same terms, the result for “416456 (antisense e[5mC]*eT*eG*e[5mC]*eG*d[5mC]*d[5mC]*dA*d[5mC]*d[5mC]*d[5mC]*dG*d[5mC]*d[5mC]*dG*eG*e[5mC]*eT*e[5mC]*eT) [compound 416456]” reads 58%.
Still for that read-out and setting: the result for “416490 (antisense eA*e[5mC]*eT*e[5mC]*eA*dG*d[5mC]*dA*dA*dG*dA*dG*dT*dG*d[5mC]*eA*eG*e[5mC]*eT*eT) [compound 416490]” reads 33%; that for “416560 (antisense eT*eA*eA*eA*eA*d[5mC]*dT*dT*dT*dA*dT*dT*dT*dA*d[5mC]*eA*eA*eG*eA*eG) [compound 416560]”, 0%.
For “416434 (antisense e[5mC]*eT*eG*eT*eA*dA*dG*dA*dA*dA*dT*d[5mC]*d[5mC]*dA*dG*eA*eA*e[5mC]*eA*eG) [compound 416434]”, the “% Inhibition of human Factor 7 mRNA levels” value came to 0%.
Turning to “416529 (antisense eG*eG*eG*e[5mC]*eT*dG*dA*dG*dA*d[5mC]*dT*dG*dA*dG*dG*eT*e[5mC]*eA*eG*e[5mC]) [compound 416529]”, the “% Inhibition of human Factor 7 mRNA levels” value is 18%.
For the substance “416461 (antisense eG*eA*eA*eG*e[5mC]*dG*d[5mC]*dA*d[5mC]*dG*dA*dA*dG*dG*d[5mC]*e[5mC]*eA*eG*e[5mC]*eG) [compound 416461]”, the “% Inhibition of human Factor 7 mRNA levels” value is 43%.
Same read-out and setting: the result for “416464 (antisense eA*eA*e[5mC]*eA*eT*dG*dT*dA*d[5mC]*dT*d[5mC]*d[5mC]*dG*dT*dG*eA*eT*eA*eT*eT) [compound 416464]” reads 53%.
As to “416537 (antisense eT*eG*eA*e[5mC]*e[5mC]*dA*d[5mC]*dT*d[5mC]*dT*dT*d[5mC]*d[5mC]*dG*dA*eG*e[5mC]*eA*eG*e[5mC]) [compound 416537]”, the “% Inhibition of human Factor 7 mRNA levels” value is recorded as 55%.
Still for that read-out and setting: the result for “416485 (antisense eG*eA*eG*e[5mC]*eT*dA*d[5mC]*dA*dG*d[5mC]*d[5mC]*dT*d[5mC]*dA*dA*eA*e[5mC]*eA*eT*e[5mC]) [compound 416485]” reads 7%.

The same data set, now with this note: HepB3 cells; gapmers targeted to nucleobases 11830 to 11869 of SEQ ID NO: 1 (Table 9).
For “422104 (antisense eG*eG*e[5mC]*eT*eG*dA*dG*dG*dA*dG*dA*d[5mC]*dA*dA*dT*eG*eG*eT*e[5mC]*eA) [compound 422104]”, the “% Inhibition of human Factor 7 mRNA levels” value is listed as 59%.
On the same count and under the same terms, for “422237 (antisense e[5mC]*eA*dA*dT*dG*dG*dT*d[5mC]*dA*dG*dG*dG*d[5mC]*dT*dG*eG*eT*eT*eT*eT) [compound 422237]” the value was 50%; for “422233 (antisense eG*eG*dT*d[5mC]*dA*dG*dG*dG*d[5mC]*dT*dG*dG*dT*dT*dT*eT*eG*eG*eA*eG) [compound 422233]”, 46%.

Staying with this data set, now noted: HepB3 cells; gapmers targeted to nucleobases 13760 to 13789 of SEQ ID NO: 1 (Table 10).
As for “422254 (antisense e[5mC]*e[5mC]*d[5mC]*dG*d[5mC]*d[5mC]*dG*dG*d[5mC]*dT*d[5mC]*dT*dG*d[5mC]*dT*e[5mC]*eA*eT*e[5mC]*e[5mC]) [compound 422254]”, the “% Inhibition of human Factor 7 mRNA levels” value came to 42%.
As to “416456 (antisense e[5mC]*eT*eG*e[5mC]*eG*d[5mC]*d[5mC]*dA*d[5mC]*d[5mC]*d[5mC]*dG*d[5mC]*d[5mC]*dG*eG*e[5mC]*eT*e[5mC]*eT) [compound 416456]”, the “% Inhibition of human Factor 7 mRNA levels” value is recorded as 50%.
Still for that read-out and setting: the result for “422175 (antisense e[5mC]*eG*e[5mC]*d[5mC]*dG*dG*d[5mC]*dT*d[5mC]*dT*dG*d[5mC]*dT*d[5mC]*dA*dT*d[5mC]*e[5mC]*e[5mC]*e[5mC]) [compound 422175]” reads 69%.

Still in this data set, the particulars now being: HepB3 cells; gapmers targeted to nucleobases 14707 to 14732 of SEQ ID NO: 1 (Table 11).
In the case of “422203 (antisense e[5mC]*eA*eG*d[5mC]*d[5mC]*dT*dG*dA*dG*dG*d[5mC]*d[5mC]*dA*dG*d[5mC]*dA*dG*eA*eT*e[5mC]) [compound 422203]”, the “% Inhibition of human Factor 7 mRNA levels” value was 52%.
Consider “422206 (antisense e[5mC]*eA*eG*d[5mC]*dA*dG*d[5mC]*d[5mC]*dT*dG*dA*dG*dG*d[5mC]*d[5mC]*dA*dG*e[5mC]*eA*eG) [compound 422206]”, for which the “% Inhibition of human Factor 7 mRNA levels” value is 65%.

Staying with this data set, now noted: HepB3 cells; gapmers targeted to nucleobases 15188 to 15211 of SEQ ID NO: 1 (Table 13).
Take “422149 (antisense e[5mC]*eA*eT*dG*dG*dT*dG*dA*dT*dG*d[5mC]*dT*dT*d[5mC]*dT*dG*dA*eA*eT*eT) [compound 422149]”: the “% Inhibition of human Factor 7 mRNA levels” value is given as 61%.
Still for that read-out and setting: for “422230 (antisense e[5mC]*eA*dT*dG*d[5mC]*dA*dT*dG*dG*dT*dG*dA*dT*dG*d[5mC]*eT*eT*e[5mC]*eT*eG) [compound 422230]” the value was 65%.
